This note sets out measurements from ChEMBL document CHEMBL1139615, “Structure-based design and synthesis of pyrazinones containing novel P1 'side pocket' moieties as inhibitors of TF/VIIa” (Bioorg Med Chem Lett, 2005).

For orientation: IC50 means the concentration at which inhibition is half-maximal. Low readings indicate greater potency in that assay, high ones weaker potency in that assay.

Some results are limits rather than exact numbers.

Assay [1] is described as follows: Inhibitory concentration against Trypsin.
Assay [2] can be described thus: Inhibitory concentration against Factor IIa.
The nature of assay [3]: Inhibitory concentration against Coagulation factor Xa.
For another assay, the target named is T1, Coagulation factor VII (Homo sapiens, UniProt P08709).
T1 sequence (P08709 whole entry): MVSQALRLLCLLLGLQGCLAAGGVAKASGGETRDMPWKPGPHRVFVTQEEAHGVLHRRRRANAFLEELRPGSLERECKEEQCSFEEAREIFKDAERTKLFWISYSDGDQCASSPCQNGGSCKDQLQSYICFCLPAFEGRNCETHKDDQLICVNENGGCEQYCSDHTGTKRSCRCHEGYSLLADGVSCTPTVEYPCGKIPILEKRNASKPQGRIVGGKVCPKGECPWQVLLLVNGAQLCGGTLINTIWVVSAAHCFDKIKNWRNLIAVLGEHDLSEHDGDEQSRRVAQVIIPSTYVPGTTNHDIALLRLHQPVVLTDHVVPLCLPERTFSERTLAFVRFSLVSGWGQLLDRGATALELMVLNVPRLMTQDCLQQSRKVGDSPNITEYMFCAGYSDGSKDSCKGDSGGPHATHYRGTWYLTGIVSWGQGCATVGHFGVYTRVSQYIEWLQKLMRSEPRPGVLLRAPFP
The assay can be described thus: Inhibitory concentration against Coagulation factor VIIa.

Take `CC[C@@H](C)NC(=O)c1cc(N)cc(-c2cnc(NC(C)C)c(=O)n2CC(=O)NCc2ccc(C(=N)N)cc2C(=O)NCCN2CCOCC2)c1`: the IC50 is 21 nM in assay [1], 16700 nM in assay [2], over 30000 nM in assay [3] and 20 nM against Coagulation factor VII.

For the compound `CC[C@@H](C)NC(=O)c1cc(N)cc(-c2cnc(NC(C)C)c(=O)n2CC(=O)NCc2ccc(C(=N)N)cc2C(=O)NCC(=O)O)c1`, the IC50 in assay [1] is 16 nM; in assay [2], over 30000 nM; in assay [3] it was over 30000 nM; at Coagulation factor VII, 21 nM.

In the case of `CC[C@@H](C)NC(=O)c1cc(N)cc(-c2cnc(NC(C)C)c(=O)n2CC(=O)NCc2ccc(C(=N)N)cc2C(=O)NCC(=O)OC)c1`, the IC50 is 31 nM in assay [1], 26700 nM in assay [2], over 30000 nM in assay [3] and 23 nM on Coagulation factor VII.

As for `CC[C@@H](C)NC(=O)c1cc(N)cc(-c2cnc(NC(C)C)c(=O)n2CC(=O)NCc2ccc(C(=N)N)cc2)c1`, the IC50 is 15 nM in assay [1], 6100 nM in assay [2], over 30000 nM in assay [3] and 1.7 nM on Coagulation factor VII.

As to `CC[C@@H](C)NC(=O)c1cc(N)cc(-c2cnc(NC(C)C)c(=O)n2CC(=O)NCc2ccc(C(=N)N)cc2C(=O)O)c1`, the IC50 is 50 nM in assay [1], over 30000 nM in assay [2], over 30000 nM in assay [3] and 152 nM on Coagulation factor VII.

In the case of `CC[C@@H](C)NC(=O)c1cc(N)cc(-c2cnc(NC(C)C)c(=O)n2CC(=O)NCc2ccc(C(=N)N)cc2C(=O)NCC(F)(F)F)c1`, the IC50 in assay [1] was 15 nM; in assay [2], 22600 nM; in assay [3], over 30000 nM; at Coagulation factor VII, 12 nM.

For `CC[C@@H](C)NC(=O)c1cc(N)cc(-c2cnc(NC(C)C)c(=O)n2CC(=O)NCc2ccc(C(=N)N)cc2C(N)=O)c1`, the half-maximal inhibitory concentration (IC50) in assay [1] is 20 nM; in assay [2], 13700 nM; in assay [3] it was over 30000 nM; against Coagulation factor VII, 6.2 nM.

As for `CC[C@@H](C)NC(=O)c1cc(N)cc(-c2cnc(NC(C)C)c(=O)n2CC(=O)NCc2ccc(C(=N)N)cc2C(=O)Nc2ccncc2)c1`, the IC50 in assay [1] is 28 nM; in assay [2], over 30000 nM; in assay [3] it was over 30000 nM.
